Reference: ChEMBL document CHEMBL1201862, “PubChem BioAssay data set” (2004)
Calls of active or inactive are those of the source.

Tests used:
[1] = target: T1, High affinity choline transporter 1 (Homo sapiens, UniProt Q9GZV3); experiment: CHT inhibitors, dose response, cell-based, 5-point CRC, membrane potential dye (AID 504840); assay type: functional
T1 sequence (Q9GZV3 whole entry): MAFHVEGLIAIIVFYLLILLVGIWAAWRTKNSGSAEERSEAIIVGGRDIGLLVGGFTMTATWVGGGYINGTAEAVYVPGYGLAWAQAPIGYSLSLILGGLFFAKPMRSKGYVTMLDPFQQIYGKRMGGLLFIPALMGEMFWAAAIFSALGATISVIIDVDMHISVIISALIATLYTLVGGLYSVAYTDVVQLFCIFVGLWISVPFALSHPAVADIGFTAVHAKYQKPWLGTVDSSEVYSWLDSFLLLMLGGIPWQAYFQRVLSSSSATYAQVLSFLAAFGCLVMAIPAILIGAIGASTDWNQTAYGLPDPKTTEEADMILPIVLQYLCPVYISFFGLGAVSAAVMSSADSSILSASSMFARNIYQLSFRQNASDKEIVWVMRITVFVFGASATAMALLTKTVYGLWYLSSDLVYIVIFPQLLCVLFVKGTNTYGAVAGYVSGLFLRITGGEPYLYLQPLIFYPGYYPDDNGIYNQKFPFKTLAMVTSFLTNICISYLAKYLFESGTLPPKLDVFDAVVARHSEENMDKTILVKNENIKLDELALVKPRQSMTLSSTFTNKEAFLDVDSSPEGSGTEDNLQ

Streptokinase A = target: T2, Streptokinase A (Streptococcus pyogenes serotype M1, UniProt P10520); experiment: S. pyogenes streptokinase expression inhibitors, potency, dose response, plasminogen activation absorbance, OD405 (AID 1914); assay type: functional, Streptococcus pyogenes M1 GAS;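 note: secreted streptokinase activity via plasminogen activation per viability signal from cell pellet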
T2 sequence (P10520 whole entry): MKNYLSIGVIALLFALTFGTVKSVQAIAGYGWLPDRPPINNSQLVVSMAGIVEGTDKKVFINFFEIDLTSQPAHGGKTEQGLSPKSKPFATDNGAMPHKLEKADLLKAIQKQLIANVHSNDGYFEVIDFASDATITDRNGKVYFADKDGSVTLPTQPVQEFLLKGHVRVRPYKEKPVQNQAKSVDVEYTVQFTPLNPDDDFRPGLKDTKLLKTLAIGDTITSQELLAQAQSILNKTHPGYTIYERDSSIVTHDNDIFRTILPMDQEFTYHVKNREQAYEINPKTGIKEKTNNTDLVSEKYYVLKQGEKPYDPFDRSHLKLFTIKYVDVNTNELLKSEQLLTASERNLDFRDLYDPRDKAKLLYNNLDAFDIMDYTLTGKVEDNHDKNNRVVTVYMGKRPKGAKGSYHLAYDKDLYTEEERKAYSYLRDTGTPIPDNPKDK

[2] = system: Streptococcus sp. 'group A'; experiment: growth inhibition of control SK(-) GAS strain, dose response, counter-screen for streptokinase expression inhibitor project, luminescence, kanamycin, BacTiterGlo, confirmation (AID 1900); assay type: functional, organism-based
Aminopeptidase N = target: T3, Aminopeptidase N (Plasmodium falciparum FcB1/Columbia, UniProt O96935); experiment: P. falciparum M1AAP inhibitors, biochemical, fluorogenic H-Leu-NHMec substrate, 1536-well (AID 1445); parameters: species or system Plasmodium falciparum 3D7, 3D7
T3 sequence (O96935 whole entry): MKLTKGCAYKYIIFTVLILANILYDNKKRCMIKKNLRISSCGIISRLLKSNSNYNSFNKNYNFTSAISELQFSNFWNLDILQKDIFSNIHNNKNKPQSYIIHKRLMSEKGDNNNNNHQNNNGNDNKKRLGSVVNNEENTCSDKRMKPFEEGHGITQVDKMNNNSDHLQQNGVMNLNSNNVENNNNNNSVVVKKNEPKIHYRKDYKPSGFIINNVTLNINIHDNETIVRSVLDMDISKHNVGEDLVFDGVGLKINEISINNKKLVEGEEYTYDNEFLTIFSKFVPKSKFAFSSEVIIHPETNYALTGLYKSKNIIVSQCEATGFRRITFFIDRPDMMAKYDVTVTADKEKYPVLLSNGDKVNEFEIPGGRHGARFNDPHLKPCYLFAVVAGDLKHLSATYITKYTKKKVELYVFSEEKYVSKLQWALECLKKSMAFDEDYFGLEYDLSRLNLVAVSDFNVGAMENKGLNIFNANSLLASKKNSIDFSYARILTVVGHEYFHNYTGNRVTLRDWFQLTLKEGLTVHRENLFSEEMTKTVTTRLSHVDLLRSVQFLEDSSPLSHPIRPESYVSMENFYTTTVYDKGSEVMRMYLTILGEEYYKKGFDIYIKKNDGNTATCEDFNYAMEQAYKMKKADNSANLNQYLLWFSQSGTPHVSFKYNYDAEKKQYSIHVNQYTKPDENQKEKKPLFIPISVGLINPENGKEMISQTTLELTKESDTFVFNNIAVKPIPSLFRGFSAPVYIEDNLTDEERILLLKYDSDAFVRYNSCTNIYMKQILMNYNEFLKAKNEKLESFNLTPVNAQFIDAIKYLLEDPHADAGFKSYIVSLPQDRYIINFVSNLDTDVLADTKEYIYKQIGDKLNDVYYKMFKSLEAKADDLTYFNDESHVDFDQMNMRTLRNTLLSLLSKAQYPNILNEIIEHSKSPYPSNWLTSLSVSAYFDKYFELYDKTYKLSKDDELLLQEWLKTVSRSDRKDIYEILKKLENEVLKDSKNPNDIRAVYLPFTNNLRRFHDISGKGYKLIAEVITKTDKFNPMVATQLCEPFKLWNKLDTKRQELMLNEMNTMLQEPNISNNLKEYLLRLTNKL

Genome polyprotein = Genome polyprotein (dengue virus type 2, UniProt P29990); experiment: Dengue-2 NS5 methyltransferase inhibitors, primary screen, biochemical, confirmation dose response (AID 588689); assay type: functional
Genome polyprotein, sequence (P29990 2492-3391 limits assumed): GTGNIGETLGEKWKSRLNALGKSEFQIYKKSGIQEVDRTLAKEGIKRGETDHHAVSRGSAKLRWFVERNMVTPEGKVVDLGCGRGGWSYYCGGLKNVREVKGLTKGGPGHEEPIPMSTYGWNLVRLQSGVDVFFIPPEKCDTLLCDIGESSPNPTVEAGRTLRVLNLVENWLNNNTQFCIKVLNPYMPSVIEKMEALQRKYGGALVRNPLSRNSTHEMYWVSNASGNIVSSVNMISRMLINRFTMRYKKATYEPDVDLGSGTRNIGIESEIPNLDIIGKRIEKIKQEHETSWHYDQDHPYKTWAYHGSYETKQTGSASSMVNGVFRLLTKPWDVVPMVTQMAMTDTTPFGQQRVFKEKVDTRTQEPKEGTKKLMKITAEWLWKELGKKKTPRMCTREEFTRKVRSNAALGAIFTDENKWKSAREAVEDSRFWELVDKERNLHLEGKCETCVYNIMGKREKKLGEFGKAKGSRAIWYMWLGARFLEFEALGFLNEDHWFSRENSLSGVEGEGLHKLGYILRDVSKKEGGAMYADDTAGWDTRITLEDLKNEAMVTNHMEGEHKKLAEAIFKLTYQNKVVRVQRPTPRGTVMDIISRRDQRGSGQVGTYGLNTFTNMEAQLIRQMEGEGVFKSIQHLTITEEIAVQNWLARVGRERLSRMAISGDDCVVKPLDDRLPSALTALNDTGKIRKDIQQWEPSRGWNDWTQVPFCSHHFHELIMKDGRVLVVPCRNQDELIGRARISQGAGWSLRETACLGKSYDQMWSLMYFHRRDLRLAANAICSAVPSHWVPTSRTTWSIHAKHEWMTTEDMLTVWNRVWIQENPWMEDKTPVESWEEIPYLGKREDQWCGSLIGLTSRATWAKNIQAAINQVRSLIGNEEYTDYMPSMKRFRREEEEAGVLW

[3] = target: T1, High affinity choline transporter 1; experiment: CHT inhibitors, dose response, cell-based, 10-point CRC, membrane potential dye (AID 588401); assay type: functional;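 note: membrane potential dye fluorescence of choline-evoked depolarization via CHT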
Streptococcus = experiment: Group A Streptococcus viability loss, dose response, counter-screen for streptokinase expression inhibitor project, luminescence, BacTiterGlo (AID 1915); assay type: functional, organism-based;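 note: potency for reduction of bacterial viability or growth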
[4] = target: T4, Sentrin-specific protease 7 (Homo sapiens, UniProt Q9BQF6); experiment: SENP7 protease inhibitors, SAR follow-up, biochemical, luminescence (AID 504497); assay type: functional
T4 sequence (Q9BQF6 whole entry): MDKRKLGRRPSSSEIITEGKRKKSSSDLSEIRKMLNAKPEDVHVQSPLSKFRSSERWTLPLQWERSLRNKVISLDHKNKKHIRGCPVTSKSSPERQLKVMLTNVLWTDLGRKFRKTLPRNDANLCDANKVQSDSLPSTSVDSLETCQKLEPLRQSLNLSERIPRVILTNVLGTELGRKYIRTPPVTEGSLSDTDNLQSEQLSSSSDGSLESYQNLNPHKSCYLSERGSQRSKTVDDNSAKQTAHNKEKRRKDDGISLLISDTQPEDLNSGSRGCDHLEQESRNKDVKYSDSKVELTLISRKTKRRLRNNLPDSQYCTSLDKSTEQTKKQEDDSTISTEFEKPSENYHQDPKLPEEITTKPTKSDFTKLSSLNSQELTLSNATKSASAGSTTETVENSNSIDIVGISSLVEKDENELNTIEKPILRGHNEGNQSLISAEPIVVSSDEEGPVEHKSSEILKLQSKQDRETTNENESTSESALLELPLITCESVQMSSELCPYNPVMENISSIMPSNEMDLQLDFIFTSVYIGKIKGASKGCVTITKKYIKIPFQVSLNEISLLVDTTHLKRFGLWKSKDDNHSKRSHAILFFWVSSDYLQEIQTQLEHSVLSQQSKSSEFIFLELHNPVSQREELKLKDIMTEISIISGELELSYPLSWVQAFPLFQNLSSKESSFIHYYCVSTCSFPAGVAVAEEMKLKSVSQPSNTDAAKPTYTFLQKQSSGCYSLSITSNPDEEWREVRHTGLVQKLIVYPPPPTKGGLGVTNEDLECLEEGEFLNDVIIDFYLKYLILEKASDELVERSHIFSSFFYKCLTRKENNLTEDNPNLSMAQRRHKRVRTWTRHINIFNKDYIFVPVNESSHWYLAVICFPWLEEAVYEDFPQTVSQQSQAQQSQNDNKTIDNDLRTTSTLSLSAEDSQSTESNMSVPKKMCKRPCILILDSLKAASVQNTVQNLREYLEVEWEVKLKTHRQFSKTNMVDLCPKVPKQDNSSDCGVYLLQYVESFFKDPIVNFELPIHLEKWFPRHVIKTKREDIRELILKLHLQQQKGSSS

[5] = target: T5, Sentrin-specific protease 6 (Homo sapiens, UniProt Q9GZR1); assay type: functional
T5 sequence (Q9GZR1 whole entry): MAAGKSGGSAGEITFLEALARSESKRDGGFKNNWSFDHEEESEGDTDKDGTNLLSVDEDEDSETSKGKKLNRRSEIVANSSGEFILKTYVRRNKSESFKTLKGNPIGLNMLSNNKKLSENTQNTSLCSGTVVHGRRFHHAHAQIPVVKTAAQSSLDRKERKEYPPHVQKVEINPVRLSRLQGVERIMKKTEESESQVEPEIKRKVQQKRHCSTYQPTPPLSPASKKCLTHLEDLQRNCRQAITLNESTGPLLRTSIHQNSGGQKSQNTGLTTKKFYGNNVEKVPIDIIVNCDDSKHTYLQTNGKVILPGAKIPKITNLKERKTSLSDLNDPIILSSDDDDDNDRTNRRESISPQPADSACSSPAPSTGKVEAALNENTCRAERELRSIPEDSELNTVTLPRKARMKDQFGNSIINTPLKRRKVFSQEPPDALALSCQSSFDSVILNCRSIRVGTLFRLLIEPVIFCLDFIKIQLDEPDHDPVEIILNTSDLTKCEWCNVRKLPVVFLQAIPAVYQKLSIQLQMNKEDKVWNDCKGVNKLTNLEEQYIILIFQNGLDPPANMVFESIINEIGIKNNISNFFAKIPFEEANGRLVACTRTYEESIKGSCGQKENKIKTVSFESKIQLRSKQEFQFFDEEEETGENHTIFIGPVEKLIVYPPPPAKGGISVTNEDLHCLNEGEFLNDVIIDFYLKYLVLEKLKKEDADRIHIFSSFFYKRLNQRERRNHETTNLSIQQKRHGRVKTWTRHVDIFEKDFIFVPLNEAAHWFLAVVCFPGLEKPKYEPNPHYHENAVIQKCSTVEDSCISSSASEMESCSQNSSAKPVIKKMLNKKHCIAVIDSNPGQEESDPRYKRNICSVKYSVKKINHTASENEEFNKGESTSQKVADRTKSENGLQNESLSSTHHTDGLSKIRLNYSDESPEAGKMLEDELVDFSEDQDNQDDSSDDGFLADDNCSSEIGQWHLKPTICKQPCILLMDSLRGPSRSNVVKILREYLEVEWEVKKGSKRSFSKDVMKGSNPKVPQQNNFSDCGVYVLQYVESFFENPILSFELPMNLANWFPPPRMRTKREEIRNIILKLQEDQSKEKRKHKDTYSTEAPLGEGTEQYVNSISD

[6] = Luminescence Cell-Based Dose Confirmation HTS to Identify Activators of 5'UTR Stem-Loop Driven Alpha-Synuclein mRNA Translation in H4 Neuroglioblastoma Cells. [Related pubchem assays: 1829 (Project Summary), 1814 (Primary HTS)]; assay type: functional
H4 = experiment: Luminescence Cell-Based Dose Response HTS to Identify Activators of 5'UTR Stem-Loop Driven Prion Protein mRNA Translation in H4 Neuroglioblastoma Cells. [Related pubchem assays: 1829 (Project Summary), 1814 (Primary HTS)]; assay type: functional; conditions: Homo sapiens
[7] = target: T6, Sentrin-specific protease 8 (Homo sapiens, UniProt Q96LD8); experiment: SENP8 protease inhibitors, SAR follow-up, biochemical, luminescence (AID 504501); assay type: functional
T6 sequence (Q96LD8 whole entry): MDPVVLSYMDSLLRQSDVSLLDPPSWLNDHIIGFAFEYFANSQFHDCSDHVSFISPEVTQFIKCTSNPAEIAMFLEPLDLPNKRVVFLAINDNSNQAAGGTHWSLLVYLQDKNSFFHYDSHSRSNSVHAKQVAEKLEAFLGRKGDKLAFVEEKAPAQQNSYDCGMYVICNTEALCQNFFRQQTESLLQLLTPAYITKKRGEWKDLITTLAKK

Caspase-3 [8] = target: T7, Caspase-3 (Homo sapiens, UniProt P42574); assay type: functional
T7 sequence (P42574 whole entry): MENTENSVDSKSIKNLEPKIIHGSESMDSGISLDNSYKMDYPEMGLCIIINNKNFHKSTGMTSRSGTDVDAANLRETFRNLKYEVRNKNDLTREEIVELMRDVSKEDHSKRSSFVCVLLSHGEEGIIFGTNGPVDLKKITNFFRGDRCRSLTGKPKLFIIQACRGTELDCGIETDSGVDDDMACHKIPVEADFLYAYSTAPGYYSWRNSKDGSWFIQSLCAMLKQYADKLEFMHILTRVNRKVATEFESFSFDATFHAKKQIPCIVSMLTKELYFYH

[9] = target: T5, Sentrin-specific protease 6; experiment: SAR Analysis of small molecule inhibitors of Sentrin-specific protease 6 (SENP6) using a Luminescent assay. [Related pubchem assays (depositor defined):AID2582, AID2599]; assay type: functional
[10] = target: T4, Sentrin-specific protease 7; assay type: functional
[11] = target: T6, Sentrin-specific protease 8; assay type: functional
Caspase-3 [12] = target: T7, Caspase-3; experiment: SAR Analysis of small molecule inhibitors of Sentrin-specific proteases (SENPs) using a Caspase-3 Selectivity assay. [Related pubchem assays (depositor defined):AID2540, AID2599, AID434973, AID489001]; assay type: functional

Structure (SMILES)	IC50 [1]	IC50 [3]	IC50 [4]	IC50 [7]	IC50 [9]	IC50 (Caspase-3 [12])	other results
COc1cc(/C=C2\SC(NS(=O)(=O)c3ccccc3)=NC2=O)c([N+](=O)[O-])cc1OC	4.17 µM (active)	8.91 µM (active)					EC50 (Streptokinase A): > 150 µM (not active); EC50 [2]: 25.6 µM (active); IC50 (Aminopeptidase N): 25.5 µM (active); IC50 (Genome polyprotein): 43.4 µM (active); EC50 (Streptococcus): > 150 µM (not active)
O=C(COc1ccccc1Br)c1ccc(O)cc1O	2.29 µM (active)	11.2 µM (active)					
CC(C)(C)NCC(O)Cn1cc(C=O)c2ccccc21 (stereo not given)	0.738 µM (active)	0.113 µM (active)					
O=C(O)c1ccc(N/N=C/c2cn(Cc3ccc(F)cc3)c3ccccc23)cc1			5.08 µM (active)	6.77 µM (active)	6.8 µM (active)	49.8 µM (active)	IC50 [5]: 7.91 µM (active); EC50 [6]: > 120 µM (not active); EC50 (H4): > 120 µM (not active); IC50 (Caspase-3 [8]): 89.1 µM (active); IC50 [10]: 8.78 µM (active); IC50 [11]: 12.4 µM (active)
C(=N\Nc1ccccc1)/c1c[nH]c2ccccc12			25.7 µM (active)	> 99 µM (inactive)	> 99 µM (inactive)	> 99 µM (inactive)	
